Consider 16 compounds from ChEMBL document CHEMBL2434832, “Structure-based identification of novel PPAR gamma ligands” (Bioorg Med Chem Lett, 2013).

pIC50: −log10 of the molar value.

In general, pIC50 refers to the negative decadic logarithm of the IC50, by convention in mol/L. Lower therefore signals a high IC50.

Series [1] has as its target T1, Peroxisome proliferator-activated receptor gamma (Homo sapiens) (UniProt P37231).
T1 sequence (whole entry): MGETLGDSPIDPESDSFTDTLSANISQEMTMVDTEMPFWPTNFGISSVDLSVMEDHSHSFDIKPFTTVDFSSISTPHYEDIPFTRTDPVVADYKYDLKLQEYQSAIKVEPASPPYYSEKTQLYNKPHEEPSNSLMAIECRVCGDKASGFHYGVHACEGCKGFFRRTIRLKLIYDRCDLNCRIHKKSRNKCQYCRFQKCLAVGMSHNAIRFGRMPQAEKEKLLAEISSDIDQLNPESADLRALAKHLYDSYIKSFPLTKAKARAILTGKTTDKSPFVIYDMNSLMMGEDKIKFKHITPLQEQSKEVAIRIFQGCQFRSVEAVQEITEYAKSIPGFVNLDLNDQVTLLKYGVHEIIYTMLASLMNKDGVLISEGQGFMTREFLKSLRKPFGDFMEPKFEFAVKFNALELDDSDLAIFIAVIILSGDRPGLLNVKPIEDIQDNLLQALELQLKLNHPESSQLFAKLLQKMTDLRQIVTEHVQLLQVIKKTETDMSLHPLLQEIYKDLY
The experiment in a line: Binding affinity to human PPARgamma LBD expressed in Escherichia coli BL21 DE3 assessed as melting temperature at 33 uM after 2 hrs using SYPRO orange dye.

Series [2] can be described thus: Solubility of the compound in DMSO. Type of series: physicochemical.
Series [3] concerns the target T2, Peroxisome proliferator-activated receptor gamma (Homo sapiens, UniProt P37231).
T2 sequence (P37231 whole entry): T1 sequence (whole entry)
The experiment in a line: Displacement of fluormone from human PPARgamma LBD expressed in Escherichia coli BL21 DE3 by fluorescence polarization assay. (Fluorescence polarisation rises when a labelled molecule tumbles more slowly, as on binding a larger partner.)

As to `Cc1ccc(Cn2c(=N)n(CC(=O)O)c3ccccc32)cc1`, the Tm in series [1] came to 46 °C. The solubility result in series [2] is recorded as “soluble”.

As to `CN1CCN(S(=O)(=O)c2ccc(SCC(=O)O)nc2)CC1`, the solubility result in series [2] is listed as “Insoluble”.

Turning to `COc1cccc(/C=C2\SC(=S)N(CCCC(=O)N3CCC(C(=O)O)CC3)C2=O)c1`, the Tm in series [1] came out at 49 °C. Besides, the solubility result in series [2] is given as “soluble”.

As for `CSc1ccccc1-n1nnnc1SCC(=O)O`, the Tm in series [1] came to 46 °C. Besides, in series [2], the solubility result was “soluble”.

Consider `O=C(O)c1ccc(COc2ccccc2C=C2C(=O)c3ccccc3C2=O)cc1`, for which the negative logarithm of the IC50 (pIC50) in series [3] is 5.94. Also, in series [1], the Tm was 53 °C. For the same compound, in series [2], the solubility entry is reported as “soluble”.

On to `O=C(Nc1ccc(C(=O)O)cc1)/C(=C\c1ccc2c(c1)OCO2)NC(=O)c1ccc(Br)o1`, for which the Tm in series [1] was determined as 46 °C. Besides, the solubility entry in series [2] was “soluble”.

Take `Cc1c(/C=C2\SC(Nc3cccc(C(=O)O)c3)=NC2=O)c2ccccc2n1C`: the Tm in series [1] was 46 °C. Also, the solubility result in series [2] is listed as “soluble”.

In turn, `O=C(O)c1ccc(-n2nnnc2SCc2ccccc2Br)cc1` gave a pIC50 in series [3] of 5.29. Also, in series [1], the Tm was determined as 46 °C. The solubility entry in series [2] is on record as “soluble”.

For `Cc1ccccc1Nc1nc(N)nc(CSc2nc3ccccc3c(=O)[nH]2)n1`, the Tm in series [1] came out at 46 °C. Besides, the solubility result in series [2] was “soluble”.

As to `O=C(O)Cn1c(SCCOc2ccc3ccccc3c2)nc2ccccc21`, the negative logarithm of the IC50 (pIC50) in series [3] was 5.65. Moreover, the Tm in series [1] amounted to 46 °C. Further, the solubility entry in series [2] is listed as “soluble”.

In the case of `O=C(CN1C(=O)c2ccccc2C1=O)NCc1ccc(C(=O)O)cc1`, the Tm in series [1] amounted to 46 °C. For the same compound, in series [2], the solubility entry is reported as “soluble”.

For the compound `CN(CCOc1ccc(CC2SC(=O)NC2=O)cc1)c1ccccn1` (configuration not stated), the Tm in series [1] was 49 °C.

For `C[C@@H](Oc1ccc(/C=C2/C(=O)N=C(O)N(c3cccc(Br)c3)C2=O)cc1)C(=O)O`, the Tm in series [1] was found to be 46 °C. For the same compound, the solubility result in series [2] is given as “soluble”.

For the compound `O=C(O)Cn1ccc2cc(OCc3ccccc3)ccc21`, the Tm in series [1] came out at 46 °C. The solubility entry in series [2] was “soluble”.

For the compound `Cc1ccc(S(=O)(=O)Cc2noc(CCC(=O)O)n2)cc1`, the Tm in series [1] stood at 46 °C. For the same compound, in series [2], the solubility entry was “soluble”.

As to `CCOc1cc(/C=C2/SC(Nc3cccc(C(=O)O)c3)=NC2=O)ccc1OC`, the solubility result in series [2] is “Insoluble”.
